From PubChem BioAssay (NCI)
Values joined by “and” are separate entries in the source; they are usually repeats but may differ in a detail not shown here. Equal values may be shown once.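 The compound was tested at five concentrations on cells cultured in 96-well plates, with a 48-hour exposure period. GI50 is the concentration that inhibits growth by half. TGI denotes the concentration required for complete inhibition of growth.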

Key:
Experiment in all cases: NCI tumour cell line growth inhibition, 48 h
[1] = tested on: UO-31 renal
[2] = tested on: SR leukemia
[3] = tested on: EKVX NSCLC
[4] = tested on: MDA-MB-231 breast
[5] = tested on: MOLT-4 leukemia
[6] = tested on: SNB-19 CNS
[7] = tested on: SK-OV-3 ovarian
[8] = tested on: SF-539 CNS
[9] = tested on: SK-MEL-28 melanoma
[10] = tested on: HT29 colon

Compound | GI50 [1] | TGI [1] | GI50 [2] | TGI [2] | GI50 [3] | TGI [3] | GI50 [4] | TGI [4] | GI50 [5] | TGI [5] | GI50 [6] | TGI [6] | GI50 [7] | TGI [7] | GI50 [8] | TGI [8] | GI50 [9] | TGI [9] | GI50 [10] | TGI [10]
C/C(=N\NC(=S)N1CCCCC1)c1ccccn1 | < 0.0123 µM | 2.29 µM | < 0.0157 µM | 10.7 µM | < 0.0145 µM | 3.99 µM | 0.123 µM | 6.33 µM | 0.0175 µM | 1.69 µM | 0.158 µM | 14.5 µM | 0.213 µM | 1.94 µM | 0.257 µM | 6.87 µM | 1.13 µM | 6.66 µM | < 0.01 µM | 4.06 µM
Cc1cc2nc3c4cc(O)ccc4n(CCN(C)C)c3nc2cc1C | 0.292 µM | 2.07 µM | 0.309 µM | – | 2.25 µM | 9.96 µM | 0.898 µM | 5.71 µM | 0.377 µM | 11.2 µM | 0.609 µM | 12.3 µM | 1.8 µM | > 61 µM | 0.519 µM | 2.09 µM | 1.56 µM | 3.16 µM | 0.475 µM | 2.31 µM
CCN1C/C(=C\c2cc(OC)c(OC)cc2OC)C(=O)/C(=C/c2cc(OC)c(OC)cc2OC)C1 | 1.8 µM | 3.9 µM | 3.16 µM | 8.99 µM | 3.5 µM | 30.6 µM | 3.66 µM | 12 µM | 4.1 µM | 81.6 µM | 4.23 µM | 23.7 µM | 3.69 µM | > 100 µM | 2.61 µM | 7.33 µM | 2.48 µM | 5.6 µM | 2.63 µM | 5.69 µM
O=C1CSCc2sccc21 | – | > 100 µM | – | > 100 µM | – | > 100 µM | – | > 100 µM | – | > 100 µM | – | > 100 µM | – | > 100 µM | – | > 100 µM | – | > 100 µM | – | > 100 µM
CCN(CCCN(C)C)Cc1cc(I)cc(C)c1O | 35.6 µM | > 100 µM | 1.04 µM | 14.5 µM | 26.5 µM | > 100 µM | 26.8 µM | 91 µM | 17.9 µM | 36.5 µM | 26.9 µM | 63.1 µM | 35.3 µM | > 100 µM | 14.8 µM | 29 µM | 18 µM | 36.3 µM | 14.7 µM | 32.4 µM
CC(C)c1[nH]nc(C(N)=O)c1N=NN(C)C | – | 2.19 µM | – | 71.2 µM | – | > 100 µM | – | > 100 µM | – | > 100 µM | – | > 100 µM | – | > 100 µM | – | > 100 µM | – | > 100 µM | – | > 100 µM
O=c1[nH]c2ccccc2c2ccccc12 | 70.9 µM | > 100 µM | 77.3 µM | > 100 µM | 92.9 µM | > 100 µM | > 100 µM | > 100 µM | > 100 µM | > 100 µM | > 100 µM | > 100 µM | 23.6 µM | > 100 µM | > 100 µM | > 100 µM | > 100 µM | > 100 µM | > 100 µM | > 100 µM
COc1ccc2c(c1OC)C[C@@H]1c3c(cc4c(c3-2)OCO4)CCN1C | – | 45.4 µM | – | 54.3 µM | – | > 100 µM | – | > 100 µM | – | 47.4 µM | – | > 100 µM | – | 58.4 µM | – | 50 µM | – | > 100 µM | – | 41.3 µM
Nc1nccc(-c2c(-c3ccc(F)cc3)ncn2C2CCNCC2)n1 | 10.9 µM and 3.04 µM | > 25 µM and 17.4 µM | 10.2 µM and 2.23 µM | > 25 µM | > 25 µM and 5.01 µM | > 25 µM and 24.8 µM | > 25 µM and 3.97 µM | > 25 µM | 17.8 µM and 7.16 µM | > 25 µM | 6.91 µM and 3.96 µM | > 25 µM | 3.34 µM and 5.45 µM | > 25 µM | 23.5 µM and 8.37 µM | > 25 µM | 10.2 µM and 8.41 µM | > 25 µM | 1.68 µM and 1.28 µM | > 25 µM
O=C(Oc1cccc2cccnc12)c1cc2c(cc1Cl)SC(N(c1ccc(F)cc1)S(=O)(=O)c1ccc(Br)s1)=NS2(=O)=O | 34.2 µM | > 100 µM | 46.2 µM | > 100 µM | 22.5 µM | 64.1 µM | 23.6 µM | > 100 µM | 28.7 µM | > 100 µM | 28.8 µM | > 100 µM | > 100 µM | > 100 µM | 23.4 µM | 75.2 µM | 40.9 µM | > 100 µM | 41 µM | > 100 µM
